Measurements as given in ChEMBL document CHEMBL1201862, “PubChem BioAssay data set” (2004).
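Values below derive from 48-hour exposures of cells grown in 96-well plates, with endpoints linearly interpolated between the two concentrations bracketing the appropriate inhibition level. GI50 = concentration required for 50% inhibition of growth.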 Active and inactive are the calls of the source. No stated cut-off is given here; in the data, active = GI50 up to about 1.1 µM and inactive = higher.

Columns and labels:
Experiment in all cases: DTP human tumour cell line panel, 48 h
SW-620 = system: SW-620
U-251 = system: U-251
RPMI-8226 = system: RPMI-8226
SN12C = system: SN12C
SF-268 = system: SF-268
RXF 393 = system: RXF 393
A549 = system: A549
MDA-MB-435 = system: MDA-MB-435
BT-549 = system: BT-549
MDA-MB-231 = system: MDA-MB-231
LOX IMVI = system: LOX IMVI
HOP-62 = system: HOP-62
786-0 = system: 786-0
SF-539 = system: SF-539
SK-OV-3 = system: SK-OV-3
UO-31 = system: UO-31
SK-MEL-28 = system: SK-MEL-28
NCI-H522 = system: NCI-H522
IGROV-1 = system: IGROV-1

Measured: GI50

Cc1cc(S(=O)(=O)[N-]/C(=N/S(=O)(=O)c2ccc(Cl)cc2)[n+]2ccc(N(C)C)cc2)c(SCC(=O)O)cc1Cl
inactive: SW-620 64.1 µM | U-251 > 100 µM | RPMI-8226 71.1 µM | SN12C > 100 µM | SF-268 > 100 µM | RXF 393 59.4 µM | A549 > 100 µM | MDA-MB-435 > 100 µM | BT-549 > 100 µM | MDA-MB-231 83.4 µM | LOX IMVI > 100 µM | HOP-62 17.9 µM | 786-0 > 100 µM | SF-539 35.5 µM | SK-OV-3 75 µM | UO-31 > 100 µM

FC(F)(F)c1ccc2nc3n(c2c1)C(c1c(Cl)cccc1Cl)SC3 (stereo not drawn)
inactive: SK-MEL-28 14.9 µM | SW-620 17.8 µM | U-251 17.4 µM | NCI-H522 11.9 µM | SN12C 18.1 µM | SF-268 21.6 µM | RXF 393 15.2 µM | A549 15 µM | MDA-MB-435 15 µM | BT-549 20.7 µM | MDA-MB-231 18.1 µM | LOX IMVI 27.6 µM | HOP-62 15.8 µM | 786-0 14.7 µM | SF-539 15.7 µM | SK-OV-3 14 µM | UO-31 13.8 µM | IGROV-1 11.5 µM

CC(C)c1cc(C(C)C)c(B(c2ccccc2)c2ccccc2)c(C(C)C)c1Br
inactive: SK-MEL-28 > 100 µM | SW-620 > 100 µM | U-251 > 100 µM | NCI-H522 > 100 µM | SN12C > 100 µM | SF-268 > 100 µM | RXF 393 > 100 µM | A549 > 100 µM | MDA-MB-435 > 100 µM | BT-549 > 100 µM | MDA-MB-231 > 100 µM | LOX IMVI > 100 µM | HOP-62 > 100 µM | 786-0 > 100 µM | SF-539 > 100 µM | SK-OV-3 > 100 µM | UO-31 > 100 µM | IGROV-1 > 100 µM

O=S(=O)(O)c1cc(Cl)c(O)c2ncc(Cl)cc12
inactive: SK-MEL-28 > 100 µM | SW-620 56.8 µM | U-251 > 100 µM | RPMI-8226 45.2 µM | SN12C 64 µM | RXF 393 > 100 µM | A549 77.1 µM | MDA-MB-435 > 100 µM | BT-549 79.4 µM | MDA-MB-231 > 100 µM | LOX IMVI 31 µM | HOP-62 > 100 µM | 786-0 92 µM | SF-539 50.4 µM | UO-31 57 µM | IGROV-1 35.4 µM

CC(C)(CO)CNc1nc(N)nc(Cl)c1N
inactive: SK-MEL-28 > 100 µM | SW-620 > 100 µM | U-251 > 100 µM | NCI-H522 > 100 µM | SN12C > 100 µM | SF-268 > 100 µM | RXF 393 > 100 µM | A549 > 100 µM | MDA-MB-435 > 100 µM | BT-549 > 100 µM | MDA-MB-231 > 100 µM | LOX IMVI > 100 µM | HOP-62 > 100 µM | 786-0 > 100 µM | SF-539 > 100 µM | SK-OV-3 > 100 µM | UO-31 > 100 µM | IGROV-1 > 100 µM

Cc1ccc(S(=O)(=O)Nn2c(O)c(C#N)c(-c3ccc([N+](=O)[O-])cc3)c(C#N)c2=O)cc1
inactive: SK-MEL-28 > 100 µM | SW-620 > 100 µM | U-251 > 100 µM | NCI-H522 > 100 µM | SN12C > 100 µM | SF-268 > 100 µM | RXF 393 > 100 µM | A549 > 100 µM | MDA-MB-435 > 100 µM | BT-549 > 100 µM | MDA-MB-231 > 100 µM | LOX IMVI > 100 µM | HOP-62 > 100 µM | 786-0 > 100 µM | SF-539 > 100 µM | SK-OV-3 > 100 µM | IGROV-1 > 100 µM
